{"source": "patent US20240060139A1", "about": "“TREATMENT RESPONSE SIGNATURES” (Caris MPI, Inc., priority 2020, published 2024)", "test_system": "ovarian cancers", "test": "Kaplan Meier overall survival on platinum therapy against gene copy number at 5q1x and 3q2x (control analysis)", "assay_type": "in vivo", "conditions": "MAP3K1, IL6ST, PIK3R1 copy number; FIGS. 3F-H", "from_the_text": "We then asked whether loss of the PARP15 and PARP8 would also correlate with response or lack of response to PARPi therapy. For this analysis we looked at DNA copy number determined using next-generation sequencing of a panel of 592 genes. See Example 1. […] Without being bound by theory, loss at a one gene is highly correlated with loss of neighboring genes. As a control, we repeated the analysis shown in FIGS. 3C-E but used response to platinum compounds instead of PARPi, specifically carboplatin. […] As a control, we repeated the analysis shown in FIGS. 3I-K but used response to platinum compounds instead of PARPi."}
{"smiles": "N.N.O=C([O-])C1(C(=O)[O-])CCC1.[Pt+2]", "note": "[carboplatin]", "values": [{"measurement": "response to platinum therapy (overall survival) by gene copy number at 5q1x", "value": "loss of copy number at 5q1x was correlated of positive benefit of platinum therapy"}]}
